Measurements from paper PMC5766609 (Scientific Reports, 2018).
Residues, ends and D or L forms follow the SMILES beside them. No end group written: not given here.

What was measured:
[1] = biological target: T1, human GLP-1 receptor (GLP1R) (Homo sapiens, UniProt P43220); assay: cAMP assay on CHO-JumpIn cells stably transfected with human GLP-1 receptor (HitHunter cAMP); assay type: cell-based; conditions: Table 2, cAMP accumulation, buffer PBS, 0.1% BSA, 100 μM RO 20-1724, 20% serum, 1 hr at RT, value ± spread, read-out: EC50 GLP1R;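 also: peptides tested as 4-fold serial dilution series, cells exposed 1 hr at RT in the dark, cAMP quantified against a cAMP standard calibration curve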
T1 construct: expressed in transfected cells; host or cells: CHO-JumpIn cells, stably transfected
Description: (§1) Briefly, a 2 μM solution of peptide was prepared, and 4-fold serial dilutions were made. 150 nL of the above titration was then dispensed into an Optiplate384 using an Echo555. […] The HitHunter® cAMP Assay kit calibration curve was prepared following the manufacturer’s protocol (DiscoveRx-90-0075L). 30,000 cells/well were added to the peptides, spun briefly at 500 rpm for 15 s and incubated at RT in the dark for 1 hr. The assay was developed as per the manufacturer’s instructions. cAMP accumulation due to GLP1R agonism or GCGR agonism was measured using an EnVision platereader (PerkinElmer), and calibrated using the cAMP standard curve. Data were analyzed using Assay Data Analyzer (ADA).

[2] = biological target: T2, human glucagon receptor (GCGR) (Homo sapiens, UniProt P47871); assay: cAMP assay on CHO-JumpIn cells stably transfected with human glucagon receptor (HitHunter cAMP); assay type: cell-based; conditions: Table 2; cAMP accumulation, CHO-JumpIn cells with human GCGR, buffer PBS, 0.1% BSA, 100 μM RO 20-1724, 20% serum; 1 hr at RT; value ± spread; read-out: EC50 GCGR;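 also: peptides tested as 4-fold serial dilutions starting from a 2 µM solution, cells exposed 1 hr at RT in darkness, cAMP quantified against a cAMP standard curve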
T2 construct: expressed in transfected cells; host or cells: CHO-JumpIn cells, stably transfected
Description: as §1

[3] = biological target: human GLP-1 receptor (human) (UniProt P43220)
human GLP-1 receptor (human), sequence (P43220 24-463): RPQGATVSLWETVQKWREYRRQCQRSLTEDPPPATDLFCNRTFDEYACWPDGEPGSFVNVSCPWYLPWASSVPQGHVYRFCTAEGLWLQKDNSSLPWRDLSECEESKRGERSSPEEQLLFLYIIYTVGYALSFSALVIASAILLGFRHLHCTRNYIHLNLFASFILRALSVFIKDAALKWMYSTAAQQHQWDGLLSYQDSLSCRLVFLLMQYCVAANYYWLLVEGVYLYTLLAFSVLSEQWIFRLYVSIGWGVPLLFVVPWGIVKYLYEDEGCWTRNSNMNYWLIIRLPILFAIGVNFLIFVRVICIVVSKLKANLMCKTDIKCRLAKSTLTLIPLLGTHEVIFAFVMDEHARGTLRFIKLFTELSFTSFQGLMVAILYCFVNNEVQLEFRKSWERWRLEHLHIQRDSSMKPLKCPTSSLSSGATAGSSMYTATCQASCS

T2 sequence (P47871 26-477): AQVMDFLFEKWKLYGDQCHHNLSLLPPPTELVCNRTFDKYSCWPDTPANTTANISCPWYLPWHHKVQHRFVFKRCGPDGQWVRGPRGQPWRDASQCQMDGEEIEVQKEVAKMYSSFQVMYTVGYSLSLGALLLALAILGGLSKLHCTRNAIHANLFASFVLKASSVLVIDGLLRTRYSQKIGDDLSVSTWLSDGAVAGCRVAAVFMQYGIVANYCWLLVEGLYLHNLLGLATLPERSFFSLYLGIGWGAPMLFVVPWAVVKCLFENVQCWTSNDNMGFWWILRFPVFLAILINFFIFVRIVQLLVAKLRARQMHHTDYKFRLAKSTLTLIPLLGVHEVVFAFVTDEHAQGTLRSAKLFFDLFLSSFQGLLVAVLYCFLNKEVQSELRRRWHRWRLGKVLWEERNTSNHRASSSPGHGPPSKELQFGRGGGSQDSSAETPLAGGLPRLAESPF
T1 sequence (P43220 24-463): as the sequence (P43220 24-463) above

Molecule | EC50 [1] | EC50 [2] | EC50 GLP1R (nM); cAMP assay on CHO-JumpIn cells with human GLP1R [3]
CC[C@H](C)[C@H](NC(=O)[C@H](Cc1ccc(O)cc1)NC(=O)[C@H](CC(=O)O)NC(=O)[C@H](CO)NC(=O)[C@@H](NC(=O)[C@H](Cc1ccccc1)NC(=O)[C@@H](NC(=O)CNC(=O)[C@H](CCC(N)=O)NC(=O)[C@H](CO)NC(=O)[C@@H](N)Cc1c[nH]cn1)[C@@H](C)O)[C@@H](C)O)C(=O)N[C@@H](CCCCN)C(=O)N[C@@H](CC(C)C)C(=O)N[C@@H](CC(C)C)C(=O)N[C@@H](CC(=O)O)C(=O)N[C@@H](CO)C(=O)N[C@@H](CCCNC(=N)N)C(=O)N[C@@H](CCCNC(=N)N)C(=O)N[C@@H](C)C(=O)N[C@@H](CCC(N)=O)C(=O)N[C@@H](CC(=O)O)C(=O)N[C@@H](Cc1ccccc1)C(=O)N[C@H](C(=O)N[C@@H](CCC(N)=O)C(=O)N[C@@H](Cc1c[nH]c2ccccc12)C(=O)N[C@@H](CC(C)C)C(=O)N[C@@H](CCSC)C(=O)N[C@@H](CC(N)=O)C(=O)N[C@H](C(N)=O)[C@@H](C)O)C(C)C [Peptide 7] (H-HSQGTFTSDYIKLLDSRRAQDFVQWLMNT-NH2) | 78300 ± 93800 pM | 301 ± 216 pM | –
CSCC[C@H](NC(=O)[C@H](CC(C)C)NC(=O)[C@H](Cc1c[nH]c2ccccc12)NC(=O)[C@H](CCC(N)=O)NC(=O)[C@@H](NC(=O)[C@H](Cc1ccccc1)NC(=O)[C@H](CC(=O)O)NC(=O)[C@H](Cc1ccc(O)cc1)NC(=O)[C@H](C)NC(=O)[C@H](CCCNC(=N)N)NC(=O)[C@H](CC(C)C)NC(=O)[C@H](CCC(=O)O)NC(=O)[C@H](CC(=O)O)NC(=O)[C@H](CC(C)C)NC(=O)[C@H](Cc1ccc(O)cc1)NC(=O)[C@H](CCCCN)NC(=O)[C@H](CO)NC(=O)[C@H](Cc1ccc(O)cc1)NC(=O)[C@H](CC(=O)O)NC(=O)[C@H](CO)NC(=O)[C@@H](NC(=O)[C@H](Cc1ccccc1)NC(=O)[C@@H](NC(=O)CNC(=O)[C@H](CCC(N)=O)NC(=O)[C@H](CO)NC(=O)[C@@H](N)Cc1c[nH]cn1)[C@@H](C)O)[C@@H](C)O)C(C)C)C(=O)N[C@@H](CC(N)=O)C(=O)N[C@H](C(N)=O)[C@@H](C)O [Peptide 10] (H-HSQGTFTSDYSKYLDELRAYDFVQWLMNT-NH2) | 38 ± 9 pM | 57 ± 21 pM | –
CC[C@H](C)[C@H](NC(=O)[C@H](CO)NC(=O)[C@H](CC(=O)O)NC(=O)[C@H](CC(C)C)NC(=O)[C@H](Cc1ccc(O)cc1)NC(=O)[C@H](CCCCN)NC(=O)[C@H](CO)NC(=O)[C@H](Cc1ccc(O)cc1)NC(=O)[C@H](CC(=O)O)NC(=O)[C@H](CO)NC(=O)[C@@H](NC(=O)[C@H](Cc1ccccc1)NC(=O)[C@@H](NC(=O)CNC(=O)[C@H](CCC(N)=O)NC(=O)[C@H](CO)NC(=O)[C@@H](N)Cc1c[nH]cn1)[C@@H](C)O)[C@@H](C)O)C(=O)N[C@@H](CCCNC(=N)N)C(=O)N[C@@H](C)C(=O)N[C@@H](CCC(N)=O)C(=O)N[C@@H](CC(=O)O)C(=O)N[C@@H](Cc1ccccc1)C(=O)N[C@H](C(=O)N[C@@H](CCC(N)=O)C(=O)N[C@@H](Cc1c[nH]c2ccccc12)C(=O)N[C@@H](CC(C)C)C(=O)N[C@@H](CCSC)C(=O)N[C@@H](CC(=O)O)C(=O)N[C@H](C(N)=O)[C@@H](C)O)C(C)C [Peptide 18] (H-HSQGTFTSDYSKYLDSIRAQDFVQWLMDT-NH2) | 56 ± 12 pM | 37 ± 11 pM | –
ASMFTFFSDYSKYLDSRRAQDFVQWLMLT-NH2 [Peptide 15] | – | – | > 200 nM

Further molecules by falling EC50 [1], results first:

EC50 [1] | EC50 [2] | EC50 GLP1R (nM); cAMP assay on CHO-JumpIn cells with human GLP1R [3] | Molecule
1330 ± 209 pM | 26 ± 2 pM | – | CC[C@H](C)[C@H](NC(=O)[C@H](CC(=O)O)NC(=O)[C@H](CC(C)C)NC(=O)[C@H](Cc1ccc(O)cc1)NC(=O)[C@H](CCCCN)NC(=O)[C@H](CO)NC(=O)[C@H](Cc1ccc(O)cc1)NC(=O)[C@H](CC(=O)O)NC(=O)[C@H](CO)NC(=O)[C@@H](NC(=O)[C@H](Cc1ccccc1)NC(=O)[C@@H](NC(=O)CNC(=O)[C@H](CCC(N)=O)NC(=O)[C@H](CO)NC(=O)[C@@H](N)Cc1c[nH]cn1)[C@@H](C)O)[C@@H](C)O)C(=O)NCC(=O)N[C@@H](CCCNC(=N)N)C(=O)N[C@@H](C)C(=O)N[C@@H](CCC(N)=O)C(=O)N[C@@H](CC(=O)O)C(=O)N[C@@H](Cc1ccccc1)C(=O)N[C@H](C(=O)N[C@@H](CCC(N)=O)C(=O)N[C@@H](Cc1c[nH]c2ccccc12)C(=O)N[C@@H](CC(C)C)C(=O)N[C@@H](CC(C)C)C(=O)N[C@@H](CC(N)=O)C(=O)N[C@H](C(N)=O)[C@@H](C)O)C(C)C [Peptide 4] (H-HSQGTFTSDYSKYLDIGRAQDFVQWLLNT-NH2)
184 ± 6 pM | 2240 ± 334 pM | – | CSCC[C@H](NC(=O)[C@H](CC(C)C)NC(=O)[C@H](Cc1c[nH]c2ccccc12)NC(=O)[C@H](CCC(N)=O)NC(=O)[C@@H](NC(=O)[C@H](Cc1ccccc1)NC(=O)[C@H](CC(=O)O)NC(=O)[C@H](Cc1c[nH]cn1)NC(=O)[C@H](C)NC(=O)[C@H](CCCNC(=N)N)NC(=O)[C@H](CCCNC(=N)N)NC(=O)[C@H](CC(=O)O)NC(=O)[C@H](CCC(=O)O)NC(=O)[C@@H](NC(=O)[C@H](Cc1ccc(O)cc1)NC(=O)[C@H](CCCCN)NC(=O)[C@H](CO)NC(=O)[C@H](Cc1ccc(O)cc1)NC(=O)[C@H](CC(=O)O)NC(=O)[C@H](CO)NC(=O)[C@@H](NC(=O)[C@H](Cc1ccccc1)NC(=O)[C@@H](NC(=O)CNC(=O)[C@H](CCC(N)=O)NC(=O)[C@H](CO)NC(=O)[C@@H](N)Cc1c[nH]cn1)[C@@H](C)O)[C@@H](C)O)C(C)C)C(C)C)C(=O)N[C@@H](CC(N)=O)C(=O)N[C@H](C(N)=O)[C@@H](C)O [Peptide 2] (H-HSQGTFTSDYSKYVEDRRAHDFVQWLMNT-NH2)
133 ± 32 pM | 25 ± 1 pM | – | CSCC[C@H](NC(=O)[C@H](CC(C)C)NC(=O)[C@H](CO)NC(=O)[C@H](CC(=O)O)NC(=O)[C@H](CC(C)C)NC(=O)[C@H](Cc1ccc(O)cc1)NC(=O)[C@H](CCCCN)NC(=O)[C@H](CO)NC(=O)[C@H](Cc1ccc(O)cc1)NC(=O)[C@H](CC(=O)O)NC(=O)[C@H](CO)NC(=O)[C@@H](NC(=O)[C@H](Cc1ccccc1)NC(=O)[C@@H](NC(=O)CNC(=O)[C@H](CCC(N)=O)NC(=O)[C@H](CO)NC(=O)[C@@H](N)Cc1c[nH]cn1)[C@@H](C)O)[C@@H](C)O)C(=O)N[C@@H](C)C(=O)N[C@@H](CCC(N)=O)C(=O)N[C@@H](CC(=O)O)C(=O)N[C@@H](Cc1ccccc1)C(=O)N[C@H](C(=O)N[C@@H](CCC(N)=O)C(=O)N[C@@H](Cc1c[nH]c2ccccc12)C(=O)N[C@@H](CC(C)C)C(=O)N[C@@H](CCSC)C(=O)N[C@@H](CO)C(=O)N[C@H](C(N)=O)[C@@H](C)O)C(C)C [Peptide 5] (H-HSQGTFTSDYSKYLDSLMAQDFVQWLMST-NH2)
7 ± 1 pM | 16 ± 1 pM | – | CC[C@H](C)[C@H](NC(=O)[C@H](CC(C)C)NC(=O)[C@H](Cc1c[nH]c2ccccc12)NC(=O)[C@H](CC(=O)O)NC(=O)[C@@H](NC(=O)[C@H](Cc1ccccc1)NC(=O)[C@H](CC(=O)O)NC(=O)[C@H](CCC(N)=O)NC(=O)[C@H](C)NC(=O)[C@H](CCCNC(=N)N)NC(=O)[C@H](CCCNC(=N)N)NC(=O)[C@H](CO)NC(=O)[C@H](CC(=O)O)NC(=O)[C@H](CC(C)C)NC(=O)[C@H](Cc1ccc(O)cc1)NC(=O)[C@H](CCCCN)NC(=O)[C@H](CO)NC(=O)[C@H](Cc1ccc(O)cc1)NC(=O)[C@H](CC(=O)O)NC(=O)[C@H](CO)NC(=O)[C@@H](NC(=O)[C@H](Cc1ccccc1)NC(=O)[C@@H](NC(=O)CNC(=O)[C@H](CCC(N)=O)NC(=O)[C@H](CO)NC(=O)[C@@H](N)Cc1c[nH]cn1)[C@@H](C)O)[C@@H](C)O)C(C)C)C(=O)N[C@@H](CC(N)=O)C(=O)N[C@@H](CO)C(N)=O [Peptide 28]
